Paper PMC9363231, “High‐resolution analysis of individual spike peptide‐specific CD4 ^+ T‐cell responses in vaccine recipients and COVID‐19 patients” (Clinical & Translational Immunology, 2022)
Where two headings read alike, the source gives them in different places.

Assays:
Test in all cases: biochemical
Assay type in all cases: binding
[1] = biological target: HLA-DRB1*03:01 (Homo sapiens, UniProt P01903+P01911, A100K/A102G/A103R/A169T/F55Y/I96L/K41T/L162R/M171V/P40S/Q125H/Q178H/Q39Y/R42S/S66N/T106N/T262R/W38E/Y61H)
HLA-DRB1*03:01, sequence (P01903 26-254, other chains not shown): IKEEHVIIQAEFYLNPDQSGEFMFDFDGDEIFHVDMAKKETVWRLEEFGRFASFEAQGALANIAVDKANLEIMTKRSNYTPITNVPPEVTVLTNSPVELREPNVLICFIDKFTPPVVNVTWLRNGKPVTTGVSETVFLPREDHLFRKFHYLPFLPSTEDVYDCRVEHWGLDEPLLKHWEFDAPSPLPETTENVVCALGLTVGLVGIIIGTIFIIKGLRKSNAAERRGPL

[2] = biological target: HLA-DRB1*13:02 (Homo sapiens, UniProt P01903+P01911, A100E/A169T/K41T/L162R/M171V/P40S/Q125H/Q178H/Q39Y/Q99D/R42S/S66N/T262R/V115G/W38E/Y61H)
HLA-DRB1*13:02, sequence (P01903 26-254 limits assumed, other chains not shown): as the sequence (P01903 26-254, other chains not shown) above

[3] = biological target: HLA-DRB1*15:01 (Homo sapiens, UniProt P01903+P01911)
[4] = biological target: HLA-DRB1*04:05 (Homo sapiens, UniProt P01903+P01911, A100R/A169T/D86S/F76Y/I96L/K127E/L162R/M171V/N62H/P40V/Q125Y/R42H/S133A/S149N/S66Y/V115G/V209L/W38E)
[5] = biological target: HLA-DRB1*07:01 (Homo sapiens, UniProt P01903+P01911, A100R/A102G/A103Q/D57E/D86V/E43K/F76Y/K127E/L162R/M171V/P40G/Q125H/Q99D/R33Q/R42Y/R54Q/S133A/S66F/T210M/V115G/Y107V/Y59L/Y89S)
[6] = biological target: HLA-DRB1*09:01 (Homo sapiens, UniProt P01903+P01911, A100R/A103E/D57H/D86V/F55Y/F60I/F76Y/I96F/K127E/L162R/M171V/P40D/Q125H/Q99R/R33Q/R42F/S133A/S66N/T210M/V115G/W38K/Y107V/Y59G/Y89S)
[7] = biological target: HLA-DRB1*04:01 (Homo sapiens, UniProt P01903+P01911, A100K/A169T/F76Y/I96L/K127E/L162R/M171V/N62H/P40V/Q125Y/R42H/S133A/S149N/S66Y/V115G/V209L/W38E)
[8] = biological target: HLA-DRB1*11:01 (Homo sapiens, UniProt P01903+P01911, A100R/A169T/A87E/I96F/K41T/L162R/M171V/P40S/Q125H/Q178H/Q39Y/Q99D/R42S/S66Y/T262R/V115G/W38E)
HLA-DRB1*11:01, sequence (P01903 26-254 limits assumed, other chains not shown): as the sequence (P01903 26-254, other chains not shown) above

[9] = biological target: HLA-DRB1*01:01 (Homo sapiens, UniProt P01903+P01911, A100R/D57E/F55L/F60I/F76Y/I96L/L162R/M171V/P40L/Q125E/R42F/V115G/Y59C)
[10] = biological target: HLA-DRB1*12:01 (Homo sapiens, UniProt P01903+P01911, A100R/A169T/D57E/D86V/F55L/H45Y/K41T/L162R/M171V/P40S/Q125H/Q178H/Q39Y/Q99D/R42G/S66L/T262R/V114A/V67L/W38E/Y59H/Y61H/Y89S)
[11] = biological target: HLA-DRB1*08:02 (Homo sapiens, UniProt P01903+P01911, A100R/A103L/A169T/F76Y/H45Y/I96F/K41T/L162R/M171V/P40S/Q125H/Q178H/Q39Y/Q99D/R218S/R42G/S66Y/V115G/W38E)

Row | SMILES | IC50 [1] [nM] | IC50 [2] [nM] | IC50 [3] [nM] | IC50 [4] [nM] | IC50 [5] [nM] | IC50 [6] [nM] | IC50 [7] [nM] | IC50 [8] [nM] | IC50 ([9]; read-out: in vitro binding capacity (IC50), DRB1*01:01) [nM] | IC50 [10] [nM] | IC50 [11] [nM] | IC50 [9] [nM]
1 | CC(C)[C@H](N)C(=O)N[C@@H](Cc1ccccc1)C(=O)N[C@@H](CC(N)=O)C(=O)N[C@@H](C)C(=O)N[C@H](C(=O)N[C@@H](CCCNC(=N)N)C(=O)N[C@@H](Cc1ccccc1)C(=O)N[C@@H](C)C(=O)N[C@@H](CO)C(=O)N[C@H](C(=O)N[C@@H](Cc1ccc(O)cc1)C(=O)N[C@@H](C)C(=O)N[C@@H](Cc1c[nH]c2ccccc12)C(=O)N[C@@H](CC(N)=O)C(=O)N[C@@H](CCCNC(=N)N)C(=O)O)C(C)C)[C@@H](C)O [peptide 69] | > 40000 | > 40000 | 12 | 976 | 2.7 | 321 | 853 | 372 | 1030 | 500 | 3710 | 
2 | CC(C)[C@H](NC(=O)CNC(=O)[C@H](Cc1ccc(O)cc1)NC(=O)[C@H](CS)NC(=O)[C@H](CCCCN)NC(=O)[C@H](Cc1ccccc1)NC(=O)[C@@H](NC(=O)[C@H](CO)NC(=O)[C@H](Cc1ccccc1)NC(=O)[C@H](CO)NC(=O)[C@H](C)NC(=O)[C@@H](N)CO)[C@@H](C)O)C(=O)N[C@@H](CO)C(=O)N1CCC[C@H]1C(=O)N[C@H](C(=O)O)[C@@H](C)O [peptide 75] | > 40000 | > 40000 | 711 | 559 | 519 | 117 | 3330 | 626 |  | 11500 | 4670 | 5290
3 | CC(C)C[C@H](NC(=O)[C@H](CCCNC(=N)N)NC(=O)[C@H](Cc1ccc(O)cc1)NC(=O)[C@H](CC(C)C)NC(=O)[C@@H](N)Cc1ccc(O)cc1)C(=O)N[C@@H](Cc1ccccc1)C(=O)N[C@@H](CCCNC(=N)N)C(=O)N[C@@H](CCCCN)C(=O)N[C@@H](CO)C(=O)N[C@@H](CC(N)=O)C(=O)N[C@@H](CC(C)C)C(=O)N[C@@H](CCCCN)C(=O)N1CCC[C@H]1C(=O)N[C@@H](Cc1ccccc1)C(=O)N[C@@H](CCC(=O)O)C(=O)O [peptide 91] | > 40000 | 8570 | 1.7 | 543 | 575 | 13 | 590 | 4.2 |  | 323 | 23 | 7360
4 | CC[C@H](C)[C@H](NC(=O)[C@H](Cc1ccccc1)NC(=O)[C@H](CO)NC(=O)[C@H](CCCNC(=N)N)NC(=O)[C@H](CCCCN)NC(=O)[C@H](CO)NC(=O)[C@@H]1CCCN1C(=O)[C@@H](N)CCCCN)C(=O)N[C@@H](CCC(=O)O)C(=O)N[C@@H](CC(=O)O)C(=O)N[C@@H](CC(C)C)C(=O)N[C@@H](CC(C)C)C(=O)N[C@@H](Cc1ccccc1)C(=O)N[C@@H](CC(N)=O)C(=O)N[C@@H](CCCCN)C(=O)O [peptide 163] | 1500 | > 40000 | 6810 | 3440 | 1930 | 519 | 451 | 301 |  | 3980 | 3410 | > 40000
5 | CC[C@H](C)[C@H](NC(=O)[C@H](CC(=O)O)NC(=O)CNC(=O)[C@H](CC(C)C)NC(=O)[C@H](CS)NC(=O)[C@H](CC(=O)O)NC(=O)CNC(=O)[C@H](Cc1ccc(O)cc1)NC(=O)[C@H](CCC(N)=O)NC(=O)[C@H](CCCCN)NC(=O)[C@@H](NC(=O)[C@H](Cc1ccccc1)NC(=O)CNC(=O)[C@H](C)N)[C@@H](C)CC)C(=O)N[C@@H](C)C(=O)O [peptide 167] |  |  | 716 | 950 | 740 | 1560 | 836 | 3750 |  | 17000 | 22300 | 1100
